Source: ChEMBL document CHEMBL1201862, “PubChem BioAssay data set” (2004)
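Where inhibition never reached the appropriate level, the endpoint shown equals the highest concentration tested. Otherwise, values were interpolated linearly from a five-concentration, 48-hour dose response in 96-well plates. Abbreviation: GI50, concentration required for 50% inhibition of growth.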 Active and inactive are the calls of the source. Cut-off read from the data, not from the text of the source: active = GI50 up to about 1.1 µM and inactive = higher.

Columns and labels:
Test in all cases: NCI-60 cell line screen, 48 h
IGROV-1 = system: IGROV-1
SK-MEL-5 = system: SK-MEL-5
HOP-62 = system: HOP-62
SF-268 = system: SF-268
SK-OV-3 = system: SK-OV-3
OVCAR-3 = system: OVCAR-3
A549 = system: A549
Malme-3M = system: Malme-3M
HCC 2998 = system: HCC 2998
SN12C = system: SN12C
OVCAR-5 = system: OVCAR-5
COLO 205 = system: COLO 205
RXF 393 = system: RXF 393
OVCAR-8 = system: OVCAR-8
CCRF-CEM = system: CCRF-CEM
SR = system: SR
M14 = system: M14

SMILES	GI50 (IGROV-1)	GI50 (SK-MEL-5)	GI50 (HOP-62)	GI50 (SF-268)	GI50 (SK-OV-3)	GI50 (OVCAR-3)	GI50 (A549)	GI50 (Malme-3M)	GI50 (HCC 2998)	GI50 (SN12C)	GI50 (OVCAR-5)	GI50 (COLO 205)	GI50 (RXF 393)	GI50 (OVCAR-8)	GI50 (CCRF-CEM)	GI50 (SR)	GI50 (M14)
Cc1ccc(/C=C/C(=O)c2sc(-n3nc(-c4ccccc4)cc3-c3ccccc3)nc2C)cc1	> 100 µM (inactive)	71.1 µM (inactive)	> 100 µM (inactive)	> 100 µM (inactive)	> 100 µM (inactive)	> 100 µM (inactive)	> 100 µM (inactive)	> 100 µM (inactive)	60.8 µM (inactive)	> 100 µM (inactive)	> 100 µM (inactive)	> 100 µM (inactive)	> 100 µM (inactive)	> 100 µM (inactive)	> 100 µM (inactive)	–	–
Cc1ccc(OCC(=O)N2N=C(c3ccccc3)CC2(O)c2ccccc2)cc1 (centres undefined)	39.4 µM (inactive)	–	27.8 µM (inactive)	> 100 µM (inactive)	> 100 µM (inactive)	33.3 µM (inactive)	20.5 µM (inactive)	> 100 µM (inactive)	> 100 µM (inactive)	17.3 µM (inactive)	18.1 µM (inactive)	28.2 µM (inactive)	–	91.2 µM (inactive)	–	9.44 µM (inactive)	34.4 µM (inactive)
O=C(NCCOC(=O)CCCCCCCCC(=O)OCCNC(=O)NC(=O)c1cn(Cc2ccccc2)c(=O)[nH]c1=O)NC(=O)c1cn(Cc2ccccc2)c(=O)[nH]c1=O	> 100 µM (inactive)	> 100 µM (inactive)	> 100 µM (inactive)	> 100 µM (inactive)	> 100 µM (inactive)	> 100 µM (inactive)	> 100 µM (inactive)	–	> 100 µM (inactive)	> 100 µM (inactive)	> 100 µM (inactive)	> 100 µM (inactive)	–	> 100 µM (inactive)	–	> 100 µM (inactive)	> 100 µM (inactive)
Cc1ccc(NC(=O)c2cc3cc(/N=N/c4ccc(Br)cc4)ccc3oc2=O)cc1	–	> 100 µM (inactive)	> 10 µM (inactive)	28.2 µM (inactive)	> 100 µM (inactive)	–	> 100 µM (inactive)	> 100 µM (inactive)	> 100 µM (inactive)	> 100 µM (inactive)	> 100 µM (inactive)	> 100 µM (inactive)	> 100 µM (inactive)	–	–	61 µM (inactive)	> 10 µM (inactive)
Nc1nc(=O)n(C2CC(O)C(O)C(CO)O2)cc1F (centres undefined)	> 100 µM (inactive)	–	> 100 µM (inactive)	> 100 µM (inactive)	–	> 100 µM (inactive)	> 100 µM (inactive)	> 100 µM (inactive)	> 100 µM (inactive)	> 100 µM (inactive)	> 100 µM (inactive)	> 100 µM (inactive)	> 100 µM (inactive)	> 100 µM (inactive)	> 100 µM (inactive)	–	> 100 µM (inactive)
N#Cc1ccccc1NC(=O)C(=O)C(C(=O)c1ccccc1-c1ccccc1)C1OC(=O)c2ccccc21 (centres undefined)	23.5 µM (inactive)	> 100 µM (inactive)	11.9 µM (inactive)	14.3 µM (inactive)	41.2 µM (inactive)	15.8 µM (inactive)	> 100 µM (inactive)	10.4 µM (inactive)	15.5 µM (inactive)	–	17.8 µM (inactive)	21.1 µM (inactive)	11.6 µM (inactive)	20.3 µM (inactive)	18.4 µM (inactive)	–	15.4 µM (inactive)
N#Cc1c(C(N)=O)ncn1Cc1ccccc1	> 100 µM (inactive)	> 100 µM (inactive)	> 100 µM (inactive)	> 100 µM (inactive)	> 100 µM (inactive)	> 100 µM (inactive)	> 100 µM (inactive)	> 100 µM (inactive)	> 100 µM (inactive)	> 100 µM (inactive)	> 100 µM (inactive)	> 100 µM (inactive)	> 100 µM (inactive)	> 100 µM (inactive)	> 100 µM (inactive)	–	> 100 µM (inactive)
CC(C)N(C(=O)C12C3C4C5C3C1(C#N)C5C42)C(C)C (centres undefined)	> 100 µM (inactive)	> 100 µM (inactive)	> 100 µM (inactive)	> 100 µM (inactive)	> 100 µM (inactive)	> 100 µM (inactive)	> 100 µM (inactive)	> 100 µM (inactive)	> 100 µM (inactive)	> 100 µM (inactive)	> 100 µM (inactive)	> 100 µM (inactive)	–	> 100 µM (inactive)	> 100 µM (inactive)	> 100 µM (inactive)	> 100 µM (inactive)
COC(=O)c1ncc2c(=O)[nH]c3ccccc3c2c1C(=O)OC	> 100 µM (inactive)	> 100 µM (inactive)	> 100 µM (inactive)	> 100 µM (inactive)	–	> 100 µM (inactive)	> 100 µM (inactive)	> 100 µM (inactive)	> 100 µM (inactive)	> 100 µM (inactive)	> 100 µM (inactive)	–	> 100 µM (inactive)	> 100 µM (inactive)	> 100 µM (inactive)	> 100 µM (inactive)	> 100 µM (inactive)
C[n+]1c2ccccc2c(/C=N\NS(=O)(=O)c2ccc(Cl)cc2)c2ccccc21	43 µM (inactive)	42 µM (inactive)	> 100 µM (inactive)	69.2 µM (inactive)	> 100 µM (inactive)	41.8 µM (inactive)	23 µM (inactive)	> 100 µM (inactive)	> 100 µM (inactive)	56.8 µM (inactive)	97.7 µM (inactive)	–	57.3 µM (inactive)	40.3 µM (inactive)	15.1 µM (inactive)	–	56.4 µM (inactive)
CCOC(=O)NC(=O)c1cn(CCCOC(=O)CCCCCCCCC(=O)OCCCn2cc(C(=O)NC(=O)OCC)c(=O)[nH]c2=O)c(=O)[nH]c1=O	20.9 µM (inactive)	21.9 µM (inactive)	26 µM (inactive)	–	40.5 µM (inactive)	15.8 µM (inactive)	55.6 µM (inactive)	–	10.3 µM (inactive)	28.2 µM (inactive)	–	18.2 µM (inactive)	> 10 µM (inactive)	23 µM (inactive)	3.47 µM (inactive)	–	21.5 µM (inactive)
O=C(O)c1ccccc1C1c2ccc(Cl)cc2Oc2cc(Cl)ccc21	> 100 µM (inactive)	> 100 µM (inactive)	> 100 µM (inactive)	> 100 µM (inactive)	> 100 µM (inactive)	> 100 µM (inactive)	> 100 µM (inactive)	> 100 µM (inactive)	> 100 µM (inactive)	> 100 µM (inactive)	> 100 µM (inactive)	> 100 µM (inactive)	> 100 µM (inactive)	> 100 µM (inactive)	> 100 µM (inactive)	–	> 100 µM (inactive)
CCOP1(=O)C=C(C)C(=C(Cl)Cl)C(C)=C1 (centres undefined)	24 µM (inactive)	5.9 µM (inactive)	15.4 µM (inactive)	9.57 µM (inactive)	35.1 µM (inactive)	20.6 µM (inactive)	8.28 µM (inactive)	17.1 µM (inactive)	14.6 µM (inactive)	15 µM (inactive)	–	11.7 µM (inactive)	15.6 µM (inactive)	20.7 µM (inactive)	10.2 µM (inactive)	–	8.32 µM (inactive)
CC(=O)Nc1ccc(-c2nnc(SCC(=O)Nc3cccc(C)c3)o2)cc1	11.7 µM (inactive)	11.1 µM (inactive)	28.7 µM (inactive)	24.5 µM (inactive)	25.8 µM (inactive)	11.7 µM (inactive)	21.3 µM (inactive)	14.1 µM (inactive)	–	15.2 µM (inactive)	13.4 µM (inactive)	14.8 µM (inactive)	12.8 µM (inactive)	16.3 µM (inactive)	6.62 µM (inactive)	4.93 µM (inactive)	13 µM (inactive)
CCOCN1COCN/C1=N/C#N	> 100 µM (inactive)	> 100 µM (inactive)	> 100 µM (inactive)	> 100 µM (inactive)	> 100 µM (inactive)	> 100 µM (inactive)	31.8 µM (inactive)	> 100 µM (inactive)	> 100 µM (inactive)	> 100 µM (inactive)	> 100 µM (inactive)	28.3 µM (inactive)	0.094 µM (active)	> 100 µM (inactive)	–	25.8 µM (inactive)	> 100 µM (inactive)
CC(C)CCCC(C)[C@H]1CCC2[C@@H]3CCC4Nc5c(cnn5-c5ccccc5)C[C@]4(C)C3CC[C@@]21C (some centres undefined)	> 100 µM (inactive)	85.1 µM (inactive)	14.3 µM (inactive)	85.3 µM (inactive)	48.5 µM (inactive)	32.5 µM (inactive)	52.2 µM (inactive)	28.7 µM (inactive)	15.8 µM (inactive)	83 µM (inactive)	50.1 µM (inactive)	8.75 µM (inactive)	2.78 µM (inactive)	61 µM (inactive)	7.45 µM (inactive)	–	39.8 µM (inactive)
COc1cccc(/C=C\c2cc(OC)c(OC)c(OC)c2)c1	3.15 µM (inactive)	–	1.51 µM (inactive)	3.66 µM (inactive)	4.38 µM (inactive)	0.506 µM (active)	0.668 µM (active)	0.585 µM (active)	3.94 µM (inactive)	4.08 µM (inactive)	22.2 µM (inactive)	0.807 µM (active)	–	3.49 µM (inactive)	1.21 µM (inactive)	0.498 µM (active)	0.604 µM (active)
Cc1cc(C)c(C(=O)/C=C/c2ccccc2)c(C)c1	77.4 µM (inactive)	> 100 µM (inactive)	34.3 µM (inactive)	20.6 µM (inactive)	64.6 µM (inactive)	> 10 µM (inactive)	30.2 µM (inactive)	8.02 µM (inactive)	–	14.4 µM (inactive)	–	29 µM (inactive)	15.8 µM (inactive)	15.5 µM (inactive)	25.4 µM (inactive)	30.5 µM (inactive)	19.4 µM (inactive)
